Data from patent US20240239790A1, “7-Morpholino-1,6-Naphthyridin-5-yl Derivatives and Pharmaceutical Compositions Thereof Useful as DNA-PK Inhibitor” (adMare Therapeutics Society, priority 2021, published 2024).
Where two headings read alike, the source gives them in different places.

Columns and labels:
FaDu tumour xenograft = test: Clonogenic Survival, FaDu tumour xenograft-bearing Rag2M mice, compound ± radiation (CS-ER); assay type: in vivo, mouse
Method: FaDu tumour xenograft-bearing Rag2M mice were treated with single administrations of test compounds at indicated doses±radiation as indicated, at time 0.
Mice were irradiated at 1 h post compound administration (unless otherwise indicated), with 300 KV X-rays and a 10 mA current from a Precision XRAD 300 machine (USA) with a beam-hardening filter (2 mm Al+0.25 mm Cu+0.75 mm Sn) and an adjustable site to specimen distance (SSD) at a dose of 8-10 Gy, delivered at a rate of ˜1.05 Gy/min.
Mice were terminated at times after irradiation as indicated, and tumour tissues excised. A portion of tumour approximately 300-500 mg was briefly minced using sterile scissors and placed in a pre-weighed gentleMACS C tube (Miltenyi Biotec cat #130-093-237) and weighed with combined tumour+tube mass recorded. A 5 mL aliquot of enzyme cocktail comprising of trypsin/DNase/collagenase/EDTA-Na2 in PBS (1 mg/ml trypsin+0.26 mg/ml DNase+0.21 mg/ml collagenase+2 mM EDTA-Na2) was added to the tube, which is then run on the gentleMACS Dissociator disaggregation system. Tubes were then incubated at 37° C. and continually rotated for 20 min before again running on the gentleMACS Dissociator program. Samples were then diluted with 5 ml MEM medium containing 5% FBS and filtered (Falcon cell strainer 100 μm, cat #352360). After centrifugation (1100 rpm for 6 minutes at 4° C.) supernatant was aspirated and the cells resuspended in 4 ml cold growth medium (MEM+10% FBS)+50 ul DNase (5 mg/ml DNase solution). Cell numbers were counted from the same cell solution using a hemacytometer. Appropriate dilutions (control: 10,000 cells/ml; 8Gy: 400,000 cells/ml; drug+radiation treated; 500,000 cells/ml) were made and cells then plated in triplicate: control: 100 μl and 300 μl (1000 and 3000 cells/6 cm tissue culture plate); 8Gy: 30 μl, 105 μl and 350 μl (12000, 42000 cells/6 cm plates and 140000 cells/10 cm plate); drug+8Gy: 70 μl, 300p, 1.2 ml (35000 and 150000 cells/6 cm plates and 600000 cells/10 cm plates—only duplicate). Plates were incubated at 37° C. (in a 5% CO2, 5% O2 and balance N2 environment) for 14 days. For a final and accurate automated live-cell counting a solution of Hoechst33342 (0.01 mg/ml)+Propidium Iodide (0.004 mg/ml) in 0.9% saline was mixed with an appropriate cell number dilution of the samples in 96 well plates (50 ul staining solution+50 ul cell suspension of 10000 cells/ml) and images are taken of the wells and cell numbers are calculated by a computer program.
After 14 days plates were removed from the incubator, rinsed with PBS and stained with cold 2 g/L Malachite green oxalate salt solution (Sigma-Aldrich, cat #M6880) for 30 minutes at room temperature. Plates were rinsed with distilled water and dried. Pictures were obtained of the plates and colonies consisting of 50 or more cells were counted using a Stuart Scientific colony counter.
All plates with colonies were analyzed except when colony numbers were so high that the edges of individual colonies could not be determined accurately. Plating efficiency (PE) of each tumour sample was calculated first: PE is a ratio of the number of colonies to the number of cells seeded (sum of all the colonies countable in all the plates of the same sample divided by the sum of cells plated in the same plates). The PE of control tumours was averaged for the calculation of surviving fraction (SF): SF is based on the number of colonies formed in drug and/or radiation treated cells relative to that of untreated control (PE of treated tumor sample divided by PE of control). All treated data points were compared separately to the average of the controls. Finally a Clonogenic Survival Enhancement Ratio (CS-ER) was calculated: the SF of irradiated control groups were divided by the SF of treatment groups to determine treatment group-specific CS-ER values, and these were assigned scores based on defined response ranges: values>6=A, 4-6=B, <4=C.

[1] = tested on: pDNA-PK induction in FaDU tumour spheroids; test: Multicellular tumour spheroid + radiation, pDNA-PK (ser2056) inhibition, immunohistochemical endpoint, FaDU; assay type: cell-based; settings: Homo sapiens, 20 Gy
Method: Multicellular tumour spheroids determination of compound inhibition of pDNA-PK induction following radiation. Tumour spheroids were grown to approximately 0.5 mm in diameter and irradiated with 20 Gy in combination with inhibitor test compounds to determine their potency. Inhibitor concentration for 50% reduction in pDNA-PK induction (IC50) was determined via immunohistochemical staining in spheroid cryosections taken 2 hours following radiation. For cell survival endpoint 8 Gy radiation was used and 3 hours following radiation spheroids were dissociated, counted and plated for colony forming endpoint.
Spheroid+radiation pDNA-PK. Radiation: 20 Gy. Drug: serial dilution 5 or 10 μM down to 3.5 nM (11 wells). Spheroids: 3-6 spheroids per well (300-500 μm diameter). 20% 02 and 5% CO2. 96 well plate format. Endpoint: fluorescent immunostain pDNA-PK ser2056 and image on microscope. Analysis: determine EC50 concentrations that decreases pDNA-PK induction by 50% after irradiation.
Multicellular tumour spheroids were used to determine potency of test compounds in a 3D tissue environment using inhibition of pDNA-PK induction following radiation or cell survival as the endpoint. For the pDNA-PK endpoint HCT116 or FaDU tumour spheroids were grown to approximately 0.5 mm in diameter and irradiated with 20 Gy in combination with inhibitor test compounds to determine their potency. Experiments were carried out in 96 well plates containing 0.7 mls of MEM media containing 10% FBS and 10 mM glucose under 20% O2 & 5% CO2 at 37° C. Following dilution of compounds 1:1000 from DMSO stocks, compounds were serially diluted from 10 μM down to 3.5 nM and 5-10 spheroids added. 96 well plates were constantly stirred to avoid spheroids settling during the course of the experiment. The inhibitor concentration for 50% reduction in pDNA-PK induction (EC50) was determined via immunohistochemical staining in spheroid cryosections taken 2 hours following radiation using anti-pDNA-PK (ser 2056) and fixed immediately in formalin following sectioning. For cell survival endpoint 8 Gy radiation was used and, 3 hours following radiation, spheroids were dissociated, counted and plated for colony forming endpoint. Data presented in the table compound potency as EC50 [μM].

[2] = 2 hours following radiation, 20% O2, Example 9 Study 2, read-out: Spheroid Cell line: FaDU Immunohistochemical endpoint pDNA-PK inhibition EC50
[3] = 2 h, spheroids, 20% O2, Example 8, read-out: Cell line: FaDU Immunohistochemical endpoint pDNA-PK inhibition EC50

| EC50 [1, 2] | EC50 [1, 3] | Structure (SMILES) | CS-ER Range Score (FaDu tumour xenograft; 30 mpk + 8 Gy, 2 h) | CS-ER Range Score (FaDu tumour xenograft; 30 mpk + 8 Gy, 4 h) | other results |
| --- | --- | --- | --- | --- | --- |
| – | – | CN(C)C(=O)Cn1ccc2nc(N[C@H]3CC[C@@H](Oc4nc(N5CCOCC5)cc5ncccc45)CC3)ncc21 [Compound 86, N,N-Dimethyl-2-(2-(((1s,4s)-4-((7-morpholino-1,6-naphthyridin-5-yl)oxy)cyclohexyl)amino)-5H-pyrrolo[3,2-d]pyrimidin-5-yl)acetamide] | B B (4-6=B) | B B (4-6=B) | – |
| – | – | O=C(COc1cnc(N[C@H]2CC[C@@H](Oc3nc(N4CCOCC4)cc4ncccc34)CC2)nc1)N1CCOCC1 [Compound 61, 1-Morpholino-2-((2-(((1s,4s)-4-((7-morpholino-1,6-naphthyridin-5-yl)oxy)cyclohexyl)amino)pyrimidin-5-yl)oxy)ethan-1-one] | C (<4=C) | B (4-6=B) | – |
| 10 to 500 nM | 10 to 500 nM | CN(C)C(=O)COc1cnc(N[C@H]2CC[C@@H](Oc3nc(N4CCOCC4)cc4ncccc34)CC2)nc1 [Compound 54, N,N-Dimethyl-2-((2-(((1s,4s)-4-((7-morpholino-1,6-naphthyridin-5-yl)oxy)cyclohexyl)amino)pyrimidin-5-yl)oxy)acetamide] | – | – | CS-ER Range Score (FaDu tumour xenograft; 100 mpk + 10 Gy, 0.5 h): B (4-6=B); CS-ER Range Score (FaDu tumour xenograft; 100 mpk + 10 Gy, 4 h): A (values>6=A); CS-ER Range Score (FaDu tumour xenograft; 100 mpk + 10 Gy, 8 h): B (4-6=B); CS-ER Range Score (FaDu tumour xenograft; 100 mpk + 10 Gy, 24 h): A (values>6=A) |
| 1000 to 10000 nM | 1000 to 10000 nM | O=C(NO)c1cnc2cc(N3CCOCC3)nc(O[C@H]3CC[C@@H](n4ccnc4)CC3)c2c1 [Compound 172, 5-(((1s,4s)-4-(1H-imidazol-1-yl)cyclohexyl)oxy)-N-hydroxy-7-morpholino-1,6-naphthyridine-3-carboxamide] | – | – | – |
| – | – | O=C(COc1cnc(N[C@H]2CC[C@@H](Oc3nc(N4CCOCC4)cc4ncccc34)CC2)nc1)N1CCC1 [Compound 75, 1-(Azetidin-1-yl)-2-((2-(((1s,4s)-4-((7-morpholino-1,6-naphthyridin-5-yl)oxy)cyclohexyl)amino)pyrimidin-5-yl)oxy)ethan-1-one] | B B (4-6=B) | B B (4-6=B) | – |
| – | – | CN(C)C(=O)Cn1c(=O)n(C2CCOCC2)c2nc(N[C@H]3CC[C@@H](Oc4nc(N5CCOCC5)cc5ncccc45)CC3)ncc21 [Compound 97, N,N-Dimethyl-2-(2-(((1s,4s)-4-((7-morpholino-1,6-naphthyridin-5-yl)oxy)cyclohexyl)amino)-8-oxo-9-(tetrahydro-2H-pyran-4-yl)-8,9-dihydro-7H-purin-7-yl)acetamide] | C (<4=C) | B (4-6=B) | – |
| – | – | O=S(=O)(CF)Nc1cnc2cc(N3CCOCC3)nc(O[C@H]3CC[C@@H](Nc4ncccn4)CC3)c2c1 [Compound 192, 1-fluoro-N-(7-morpholino-5-(((1s,4s)-4-(pyrimidin-2-ylamino)cyclohexyl)oxy)-1,6-naphthyridin-3-yl)methanesulfonamide] | A (values>6=A) | B (4-6=B) | – |
| – | – | CN(C)C(=O)COc1ccc(C(=O)N[C@H]2CC[C@@H](Oc3nc(N4CCOCC4)cc4ncccc34)CC2)cn1 [Compound 117, 6-(2-(dimethylamino)-2-oxoethoxy)-N-((1s,4s)-4-((7-morpholino-1,6-naphthyridin-5-yl)oxy)cyclohexyl)nicotinamide] | C (<4=C) | B (4-6=B) | – |
| – | – | CN1CCN(CCOc2cnc(N[C@H]3CC[C@@H](Oc4nc(N5CCOCC5)cc5ncccc45)CC3)nc2)CC1 [Compound 69, 5-(2-(4-Methylpiperazin-1-yl)ethoxy)-N-((1s,4s)-4-((7-morpholino-1,6-naphthyridin-5-yl)oxy)cyclohexyl)pyrimidin-2-amine] | – | C (<4=C) | – |
| 10 to 500 nM | 10 to 500 nM | CN(C)CCOc1cnc(N[C@H]2CC[C@@H](Oc3nc(N4CCOCC4)cc4ncccc34)CC2)nc1 [Compound 64, 5-(2-(Dimethylamino)ethoxy)-N-((1s,4s)-4-((7-morpholino-1,6-naphthyridin-5-yl)oxy)cyclohexyl)pyrimidin-2-amine] | – | – | – |
